Our source for the EC50 and IC50 values is US20140155415A1, “BENZ[…] BENZODIOXINE COMPOUNDS THAT INTERACT WITH G[…] FOR THE TREATMENT OF DIABETES” (priority 2011, published 2014).

The target of assay [1] is T1, GK-GKRP (glucokinase / glucokinase regulatory protein) (Homo sapiens, UniProt Q14397).
T1 sequence (Q14397 1-625): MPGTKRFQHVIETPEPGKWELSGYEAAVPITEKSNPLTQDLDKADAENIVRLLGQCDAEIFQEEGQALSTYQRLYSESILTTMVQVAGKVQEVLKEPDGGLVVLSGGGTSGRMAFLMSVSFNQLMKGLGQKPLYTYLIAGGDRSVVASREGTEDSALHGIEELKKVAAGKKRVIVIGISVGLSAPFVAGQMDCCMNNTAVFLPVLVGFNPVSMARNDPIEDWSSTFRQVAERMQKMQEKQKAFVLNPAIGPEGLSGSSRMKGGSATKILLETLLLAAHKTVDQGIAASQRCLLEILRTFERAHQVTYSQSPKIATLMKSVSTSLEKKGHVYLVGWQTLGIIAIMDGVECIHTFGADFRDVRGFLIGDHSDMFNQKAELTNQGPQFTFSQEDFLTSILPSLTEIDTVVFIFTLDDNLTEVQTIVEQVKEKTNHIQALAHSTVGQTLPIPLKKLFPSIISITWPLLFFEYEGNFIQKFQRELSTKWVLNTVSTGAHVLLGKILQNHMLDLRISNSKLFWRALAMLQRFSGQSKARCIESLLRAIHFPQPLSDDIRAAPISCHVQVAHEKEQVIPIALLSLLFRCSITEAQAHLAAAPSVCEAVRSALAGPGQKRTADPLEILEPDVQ
The assay can be described thus: GKRP LC MS/MS Biochemical Assay (LCMS/MS). The settings on record: formation of 13C-glucose-6-phosphate from 13C-glucose by LC MS/MS, human His-hepatic GK, fructose-6-phosphate. How it is done: GKRP LC MS/MS Biochemical Assay (LCMS/MS)
This assay is used to directly measure the formation of ^13C-glucose-6-phosphate from ^13C-glucose by LC MS/MS. Begin by preparing the following solutions: Compound Buffer (CB): 50 mM Tris, pH 7.5/4 mM MgCl2/6% DMSO/fresh 10 mM DTT from 1M frozen stock. Enzyme Buffer (EB): 50 mM Tris, pH 7.5/4 mM MgCl2/6% DMSO/fresh 0.1% BSA/fresh 0.01% Brij-35 (10% BSA and 1% Brij-35 stock). GK (Glucokinase) Working Stock (5×): Dilute human His-hepatic GK to 30 nM in EB buffer. […] Seal the plate and incubate for 30 minutes at room temperature while mixing. After 30 minutes add 10 μl of GK Working Stock (5×). Re-seal the plate and incubate for another 30 minutes at room temperature while mixing. After the second 30 minutes, stop the reaction by the addition of 50 μl of 100% acetonitrile, seal, and mix for 5-10 minutes. Run 10 μl of this sample through the LC MS/MS (API 3200, Applied Biosystems, Carlsbad, Calif.). […]
(§1) In the Examples, the assays are referred to as “LCMS/MS” or “Binding.”

For assay [2], the target named is T2, GK-GKRP (interaction between glucokinase and glucokinase regulatory protein) (Homo sapiens, UniProt Q14397).
T2 construct: made in house; host or cells: GKRP: baculovirus system
T2 sequence (Q14397 1-625): T1 sequence (Q14397 1-625)
The assay can be described thus: GK-GKRP Binding Assay (Binding), AlphaScreen. The conditions noted are these: avi-tagged GKRP, GK-fluorescein, AlphaScreen beads, 1 μM sorbitol-6-phosphate; read-out: GK-GKRP IC50 (Binding). How it is done: GK-GKRP Binding Assay Protocol (Binding)
This assay is used to directly measure the interaction between glucokinase (GK) and glucokinase regulatory protein (GKRP). Begin by preparing the following solutions. Assay Buffer: 20 mM Tris, pH 7.5/0.05% BSA/1 mM DTT/1 μM sorbitol-6-phosphate. […] Combine the following reagents in a white 96-well half area plate. Pipette 14 μl of the diluted avi-tagged GKRP into each well. Add 1 μl of compound to be tested and incubate at room temperature for 20 minutes. After 20 minutes, add 5 μl of assay buffer containing 6 nM GK-fluorescein. […] Incubate in a dark room for 2 hours at room temperature. After 2 hours read the plate using an Envision plate reader (Perkin Elmer, Waltham Mass.).
Recombinant human glucokinase (hepatic) was purified and formulated in 50 mM Tris (pH 7.5), 150 mM NaCl and 20 mM glucose previous to labeling with fluorescein. […] Unreacted dye was removed by extensive dialysis into the final formulation buffer: 25 mM Tris (pH 7.2), 150 mM NaCl, 10% glycerol and 2 mM DTT. The human glucokinase regulatory protein construct was designed with a C-terminal avitag and was expressed in a baculovirus system. Purified GKRP was incubated overnight with recombinant biotin ligase in the presence of D-biotin, ATP and MgCl2. GKRP was isolated from reaction components by chromatography on a Superdex 200 size exclusion column into: 50 mM HEPES, 150 mM NaCl and 5 mM DTT. […] Proteins were quantitated according to their calculated molar extinction coefficients at A280 and were stored at −80° C.
as §1

`O=S(=O)(NC(c1cc2ccccc2o1)c1ccccc1I)c1ccc2c(c1)OCCCO2` (racemic) [Example 21, N-(1-benzofuran-2-yl(2-iodophenyl)methyl)-3,4-dihydro-2H-1,5-benzodioxepine-7-sulfonamide] showed an EC50 in assay [1] of 76 nM. Moreover, the concentration for half-maximal inhibition (IC50) in assay [2] is 228 nM.
Take `O=S(=O)(NC(c1cc2ccccc2o1)c1ccccc1Br)c1ccc2c(c1)OCCCO2` (racemic) [Example 22, N-(1-benzofuran-2-yl(2-bromophenyl)methyl)-3,4-dihydro-2H-1,5-benzodioxepine-7-sulfonamide]: in assay [1], the EC50 was found to be 58 nM. The 50% inhibitory concentration (IC50) in assay [2] amounted to 150 nM.
For the molecule `O=S(=O)(NC(c1cc2ccccc2o1)c1ccccc1F)c1ccc2c(c1)OCCCO2` (racemic) [Example 23, N-(1-benzofuran-2-yl(2-fluorophenyl)methyl)-3,4-dihydro-2H-1,5-benzodioxepine-7-sulfonamide], in assay [1], the midpoint of the response, the EC50, lay at 450 nM. Also, in assay [2], the IC50 was determined as 490 nM.
Taken in the same sequence, the figures for `O=S(=O)(NC(c1ccccn1)c1cc2ccccc2o1)c1ccc2c(c1)OCCCO2` (racemic) [Example 25, N-(1-benzofuran-2-yl(2-pyridinyl)methyl)-3,4-dihydro-2H-1,5-benzo dioxepine-7-sulfonamide] were 270 nM and 1400 nM.
The molecule `Cc1cccnc1C(NS(=O)(=O)c1ccc2c(c1)OCCCO2)c1cc2ccccc2o1` (racemic) [Example 26, N-(1-benzofuran-2-yl(3-methyl-2-pyridinyl)methyl)-3,4-dihydro-2H-1,5-benzodioxepine-7-sulfonamide] gave a half-maximal effective concentration (EC50) in assay [1] of 190 nM. Moreover, the half-maximal inhibitory concentration (IC50) in assay [2] stood at 420 nM.
As for `O=S(=O)(NC(c1ncccn1)c1cc2ccccc2o1)c1ccc2c(c1)OCCCO2` (racemic) [Example 29, N-(1-benzofuran-2-yl(2-pyrimidinyl)methyl)-3,4-dihydro-2H-1,5-benzodioxepine-7-sulfonamide], it took 990 nM to reach a half-maximal effect in assay [1] (EC50). For the same molecule, the half-inhibitory concentration (IC50) in assay [2] came to 1800 nM.
Regarding `COc1cccnc1C(NS(=O)(=O)c1ccc2c(c1)OCCCO2)c1cc2ccccc2o1` (racemic) [Example 30, N-(1-benzofuran-2-yl(3-methoxy-2-pyridinyl)methyl)-3,4-dihydro-2H-1,5-benzodioxepine-7-sulfonamide], the EC50 in assay [1] was 150 nM. In addition, the IC50 in assay [2] amounted to 310 nM.
Taken in the same sequence, the figures for `O=S(=O)(NC(c1cc2ccccc2o1)c1cccs1)c1ccc2c(c1)OCCCO2` (racemic) [Example 31, N-(1-benzofuran-2-yl(2-thiophenyl)methyl)-3,4-dihydro-2H-1,5-benzodioxepine-7-sulfonamide] were 740 nM and 3200 nM.
With `Cc1ccsc1C(NS(=O)(=O)c1ccc2c(c1)OCCCO2)c1cc2ccccc2o1` (racemic) [Example 33, N-(1-benzofuran-2-yl(3-methyl-2-thiophenyl)methyl)-3,4-dihydro-2H-1,5-benzodioxepine-7-sulfonamide], it took 1200 nM to reach a half-maximal effect in assay [1] (EC50). The IC50 in assay [2] was 1400 nM.
For `O=S(=O)(NC(c1cc2ccccc2o1)c1nccs1)c1ccc2c(c1)OCCCO2` (racemic) [Example 34, N-(1-benzofuran-2-yl(1,3-thiazol-2-yl)methyl)-3,4-dihydro-2H-1,5-benzodioxepine-7-sulfonamide] the same measures were 2800 nM and 6600 nM.
`O=S(=O)(NC(c1ccccc1)c1cc2ccccc2o1)c1ccc2c(c1)OCC(F)CO2` (racemic) [Example 35, N-(1-benzofuran-2-yl(phenyl)methyl)-3-fluoro-3,4-dihydro-2H-1,5-benzodioxepine-7-sulfonamide] had an EC50 in assay [1] of 3100 nM. The IC50 in assay [2] came out at 2300 nM.
Take `Cc1ccccc1C(NS(=O)(=O)c1ccc2c(c1)OCCCO2)c1cc2ccccc2s1` (racemic) [Example 36, N-(1-benzothiophen-2-yl(2-methylphenyl)methyl)-3,4-dihydro-2H-1,5-benzodioxepine-7-sulfonamide]: the 50% effective concentration (EC50) in assay [1] is 150 nM. The IC50 in assay [2] worked out at 290 nM.
Regarding `CCc1ccccc1C(NS(=O)(=O)c1ccc2c(c1)OCCCO2)c1cc2ccccc2s1` (racemic) [Example 37, N-(1-benzothiophen-2-yl(2-ethylphenyl)methyl)-3,4-dihydro-2H-1,5-benzodioxepine-7-sulfonamide], the response in assay [1] was half-maximal at 160 nM (EC50). In assay [2], the half-inhibitory concentration (IC50) is 300 nM.
In turn, `C=Cc1ccccc1C(NS(=O)(=O)c1ccc2c(c1)OCCCO2)c1cc2ccccc2s1` (racemic) [Example 38, N-(1-benzothiophen-2-yl(2-ethenylphenyl)methyl)-3,4-dihydro-2H-1,5-benzodioxepine-7-sulfonamide] registered a 50% effective concentration (EC50) in assay [1] of 31 nM. The IC50 in assay [2] came out at 25 nM.
In assay [1], `C#Cc1ccccc1C(NS(=O)(=O)c1ccc2c(c1)OCCCO2)c1cc2ccccc2s1` (racemic) [Example 39, N-(1-benzothiophen-2-yl(2-ethynylphenyl)methyl)-3,4-dihydro-2H-1,5-benzodioxepine-7-sulfonamide] came in with a concentration giving a half-maximal response (EC50) of 37 nM. The IC50 in assay [2] came to 17 nM.
Consider `COc1ccccc1C(NS(=O)(=O)c1ccc2c(c1)OCCCO2)c1cc2ccccc2s1` (racemic) [Example 40, N-(1-benzothiophen-2-yl(2-methoxyphenyl)methyl)-3,4-dihydro-2H-1,5-benzodioxepine-7-sulfonamide], for which a half-maximal effect in assay [1] (EC50) was put at 46 nM. Further, the IC50 in assay [2] came to 110 nM.
`CSc1ccccc1C(NS(=O)(=O)c1ccc2c(c1)OCCCO2)c1cc2ccccc2s1` (racemic) [Example 41, N-(1-benzothiophen-2-yl(2-(methylsulfanyl)phenyl)methyl)-3,4-dihydro-2H-1,5-benzodioxepine-7-sulfonamide] yielded an EC50 in assay [1] of 27 nM. Also, the concentration for half-maximal inhibition (IC50) in assay [2] was 57 nM.
As for `COc1cccnc1C(NS(=O)(=O)c1ccc2c(c1)OCCCO2)c1cc2ccccc2s1` (racemic) [Example 43, N-(1-benzothiophen-2-yl(3-methoxy-2-pyridinyl)methyl)-3,4-dihydro-2H-1,5-benzodioxepine-7-sulfonamide], in assay [1], the EC50 was determined as 47 nM. Besides, the IC50 in assay [2] is 41 nM.
In assay [1], `Cc1c(C(NS(=O)(=O)c2ccc3c(c2)OCCCO3)c2ccccc2)oc2ccccc12` (racemic) [Example 44, N-((3-methyl-1-benzofuran-2-yl)(phenyl)methyl)-3,4-dihydro-2H-1,5-benzodioxepine-7-sulfonamide] yielded an EC50 of 480 nM. For the same molecule, the half-maximal inhibitory concentration (IC50) in assay [2] worked out at 1000 nM.
In assay [1], `Cc1ccccc1C(NS(=O)(=O)c1ccc2c(c1)OCCCO2)c1oc2ccccc2c1C` (racemic) [Example 45, N-((3-methyl-1-benzofuran-2-yl)(2-methylphenyl)methyl)-3,4-dihydro-2H-1,5-benzodioxepine-7-sulfonamide] came in with a half-maximal effective concentration (EC50) of 2000 nM. In addition, the 50% inhibitory concentration (IC50) in assay [2] stood at 1700 nM.
Turning to `O=S(=O)(NC(c1ccccc1)c1cc2cccnc2s1)c1ccc2c(c1)OCCCO2` (racemic) [Example 46, N-(phenyl(thieno[2,3-b]pyridin-2-yl)methyl)-3,4-dihydro-2H-1,5-benzodioxepine-7-sulfonamide], the EC50 in assay [1] worked out at 220 nM. Also, the IC50 in assay [2] was 360 nM.
